Drawing on ChEMBL document CHEMBL4811258, “Potent Antimalarials with Development Potential Identified by Structure-Guided Computational Optimization of a Pyrrole-Based Dihydroorotate Dehydrogenase Inhibitor Series” (J Med Chem, 2021), this text covers EC50 and IC50 for 38 molecules.

Assay [1] can be described thus: Inhibition of Plasmodium falciparum DHODH expressed in Escherichia coli BL21-DE3 using L-dihydroorotate as substrate by steady-state DCIP method.

For the molecule `Cc1c(C2(c3ccc(C(F)(F)F)nc3)CC2)c[nH]c1C(=O)NC(C)c1cn[nH]c1` (stereo in doubt; form 1), the EC50 with Plasmodium falciparum was 1.3 µM. In other words, the single-digit micromolar range. `Cc1c(C2(c3ccc(C(F)F)nc3)CC2)c[nH]c1C(=O)NC(C)c1nc[nH]n1` (stereo in doubt; form 1) had an IC50 in assay [1] of 0.15 µM. For the same molecule, in the assay on Plasmodium falciparum, the EC50 was found to be 0.18 µM. Regarding `Cc1c(C2(c3ccc(C(F)(F)F)cc3F)CC2)c[nH]c1C(=O)NC(C)c1nc[nH]n1` (stereo in doubt; form 1), it took 1.2 µM to reach half-maximal inhibition in assay [1] (IC50). This molecule also gave a 50% effective concentration (EC50) in the assay with Plasmodium falciparum of 12 µM. Taken in the same sequence, the figures for `Cc1c(C(=O)NC(C)c2nc[nH]n2)[nH]c(Cl)c1Cc1ccc(C(F)(F)F)nc1` (stereo in doubt; form 1) were over 100 µM and over 10 µM. Taken in the same sequence, the figures for `Cc1cc(C(C)NC(=O)c2[nH]c(C)c(Cc3ccc(C(F)(F)F)nc3)c2C#N)no1` (stereo in doubt; form 1) were 3.2 µM and 1.8 µM. Taken in the same sequence, the figures for `Cc1c(-c2c[nH]c3nc(C(F)(F)F)ccc23)c[nH]c1C(=O)NC(C)c1nc[nH]n1` (stereo in doubt; form 1) were 0.51 µM and 0.053 µM. Regarding `Cc1cc(C(C)NC(=O)c2[nH]cc(-c3n[nH]c4cc(C(F)(F)F)ccc34)c2C)no1` (stereo in doubt; form 1), in assay [1], the IC50 is over 100 µM. This molecule also came in with an EC50 with Plasmodium falciparum of over 10 µM. Taken in the same sequence, the figures for `Cc1[nH]c(C(=O)N[C@H](C)c2cn[nH]c2)c(C#N)c1Cc1ccc(C(F)(F)F)nc1` (stereo in doubt; form 1) were 42 µM and over 1 µM. Taken in the same sequence, the figures for `Cc1c(Cc2ccc(F)c(F)c2)c[nH]c1C(=O)NC(C)c1nc[nH]n1` (stereo in doubt; form 1) were 0.4 µM and 0.72 µM. Taken in the same sequence, the figures for `CNC(=O)c1cc(C(C)NC(=O)c2[nH]cc(C3(c4ccc(C(F)(F)F)nc4)CC3)c2C)n[nH]1` (stereo in doubt; form 1) were 0.39 µM and 0.52 µM.

In turn, `Cc1cc(C(C)NC(=O)c2[nH]cc(-c3c[nH]c4cc(C(F)(F)F)ccc34)c2C)no1` (stereo in doubt; form 1) showed an IC50 in assay [1] of over 100 µM. The molecule also showed an EC50 in the assay with Plasmodium falciparum of over 1 µM. Taken in the same sequence, the figures for `Cc1[nH]c(C(=O)NC(C)c2cnn(C)c2)c(C)c1Cc1ccc(C(F)(F)F)nc1` (stereo in doubt; form 1) were over 30 µM and over 10 µM. In turn, `CNC(=O)c1cc(C(C)NC(=O)c2[nH]cc(Cc3ccc(C(F)(F)F)nc3)c2C)n[nH]1` (stereo in doubt; form 1) showed a half-maximal inhibitory concentration (IC50) in assay [1] of 1 µM. The molecule further yielded an EC50 with Plasmodium falciparum of 0.17 µM.

In turn, `Cc1c(C2(c3ccc(C(F)(F)F)nc3)CC2)c[nH]c1C(=O)NC(C)c1cc(C(N)=O)[nH]n1` (stereo in doubt; form 2) came in with an IC50 in assay [1] of 57 µM. Further, the EC50 with Plasmodium falciparum stood at 0.0094 µM. As to `Cc1c(C2(c3ccc(C(F)(F)F)nc3)CC2)c[nH]c1C(=O)NC(C)c1cn[nH]c1` (stereo in doubt; form 2), the midpoint of the response in the assay on Plasmodium falciparum, the EC50, lay at 0.0012 µM.

In assay [1], `Cc1[nH]c(C(=O)NC(C)c2nc[nH]n2)c(C)c1Cc1ccc(C(F)(F)F)nc1` (stereo in doubt; form 2) had an IC50 of 43 µM. Also, the EC50 in the assay with Plasmodium falciparum is 0.75 µM.

`Cc1c(C2(c3ccc(C(F)F)nc3)CC2)c[nH]c1C(=O)NC(C)c1nc[nH]n1` (stereo in doubt; form 2) registered an IC50 in assay [1] of over 30 µM. Also, the EC50 with Plasmodium falciparum is over 20 µM.

The molecule `Cc1cc(C(C)NC(=O)c2[nH]c(C)c(Cc3ccc(C(F)(F)F)nc3)c2C)no1` (stereo in doubt; form 2) gave an IC50 in assay [1] of 53 µM. In the assay on Plasmodium falciparum, this molecule showed an EC50 of over 1 µM. On to `Cc1c(C2(c3ccc(C(F)(F)F)cc3F)CC2)c[nH]c1C(=O)NC(C)c1nc[nH]n1` (stereo in doubt; form 2), for which, in assay [1], the IC50 was over 100 µM. The EC50 with Plasmodium falciparum came to 0.41 µM. In assay [1], `Cc1c(Cc2ccc(C(F)(F)F)nc2)c[nH]c1C(=O)NC(C)c1cc(C(N)=O)[nH]n1` (stereo in doubt; form 2) returned an IC50 of 33 µM. The molecule further displayed a concentration giving a half-maximal response (EC50) in the assay on Plasmodium falciparum of 16 µM. Taken in the same sequence, the figures for `Cc1c(Cc2ccc(C(F)(F)F)nc2)c[nH]c1C(=O)NC(C)c1cn[nH]c1` (stereo in doubt; form 2) were 6.4 µM and 0.37 µM.

In turn, `Cc1c(Cc2ccc(C(F)(F)F)nc2)c[nH]c1C(=O)NC(C)c1cnn(C)c1` (stereo in doubt; form 2) returned an EC50 in the assay with Plasmodium falciparum of 0.35 µM. In assay [1], `Cc1c(Cc2ccc(F)c3ccncc23)c[nH]c1C(=O)NC(C)c1nc[nH]n1` (stereo in doubt; form 2) registered an IC50 of 23 µM. This molecule came in with an EC50 in the assay on Plasmodium falciparum of 2.3 µM. Taken in the same sequence, the figures for `Cc1c(C2(c3cccc(C(F)(F)F)c3)CC2)c[nH]c1C(=O)NC(C)c1nc[nH]n1` (stereo in doubt; form 2) were over 30 µM and 2.8 µM. In assay [1], `Cc1c(Cc2ccc(C(F)(F)F)nc2)c[nH]c1C(=O)NC(C)c1nc[nH]n1` (stereo in doubt; form 2) gave an IC50 of over 100 µM. Also, in the assay on Plasmodium falciparum, the concentration giving a half-maximal response (EC50) worked out at 16 µM. `Cc1cc(C(C)NC(=O)c2[nH]cc(C3(c4ccc(C(F)(F)F)nc4)CC3)c2C)no1` (stereo in doubt; form 2): in assay [1], the 50% inhibitory concentration (IC50) was 80 µM. The molecule also gave an EC50 in the assay with Plasmodium falciparum of 0.0012 µM. Taken in the same sequence, the figures for `Cc1c(C2(c3ccc(C(F)(F)F)c(F)c3)CC2)c[nH]c1C(=O)NC(C)c1nc[nH]n1` (stereo in doubt; form 2) were 34 µM and 5.4 µM. The molecule `Cc1c(-c2c[nH]c3nc(C(F)(F)F)ccc23)c[nH]c1C(=O)NC(C)c1nc[nH]n1` (stereo in doubt; form 2) came in with a half-inhibitory concentration (IC50) in assay [1] of 25 µM. This molecule yielded an EC50 in the assay with Plasmodium falciparum of 2 µM.

In assay [1], `Cc1[nH]c(C(=O)NC(C)c2cn[nH]c2)c(C)c1Cc1ccc(C(F)(F)F)nc1` (stereo in doubt; form 2) displayed an IC50 of 11 µM. For the same molecule, the concentration giving a half-maximal response (EC50) in the assay on Plasmodium falciparum turned out to be 0.19 µM. Taken in the same sequence, the figures for `Cc1cc(C(C)NC(=O)c2[nH]cc(Cc3ccc(C(F)(F)F)cc3)c2C)no1` (stereo in doubt; form 2) were 48 µM and 6.2 µM.

For the molecule `Cc1cc(C(C)NC(=O)c2[nH]cc(Cc3ccc(C(F)(F)F)nc3)c2C)no1` (stereo in doubt; form 2), the EC50 with Plasmodium falciparum stood at 0.45 µM. With `Cc1cc(C(C)NC(=O)c2[nH]cc(Cc3ccc(C(F)(F)F)nc3)c2C)n[nH]1` (stereo in doubt; form 2), 68 µM corresponded to half-maximal inhibition in assay [1] (IC50). Further, the half-maximal effective concentration (EC50) in the assay with Plasmodium falciparum was over 10 µM. Taken in the same sequence, the figures for `Cc1c(Cc2ccc(C(F)(F)F)cc2F)c[nH]c1C(=O)NC(C)c1nc[nH]n1` (stereo in doubt; form 2) were 36 µM and 5.8 µM. Taken in the same sequence, the figures for `Cc1c(Cc2ccc(C(F)(F)F)nc2)c[nH]c1C(=O)NC(C)c1cc(C#N)[nH]n1` (stereo in doubt; form 2) were 54 µM and 6.1 µM. Consider `Cc1c(Cc2ccc(F)c(F)c2)c[nH]c1C(=O)NC(C)c1nc[nH]n1` (stereo in doubt; form 2), for which the IC50 in assay [1] was over 100 µM. Also, the half-maximal effective concentration (EC50) in the assay with Plasmodium falciparum is over 10 µM.

As to `CNC(=O)c1cc(C(C)NC(=O)c2[nH]cc(C3(c4ccc(C(F)(F)F)nc4)CC3)c2C)n[nH]1` (stereo in doubt; form 2), in assay [1], it took 55 µM to reach half-maximal inhibition (IC50). In the assay on Plasmodium falciparum, this molecule displayed an EC50 of 0.044 µM.

Turning to `CNC(=O)c1cc(C(C)NC(=O)c2[nH]cc(Cc3ccc(C(F)(F)F)nc3)c2C)n[nH]1` (stereo in doubt; form 2), inhibition in assay [1] was half-maximal at 89 µM (IC50). Further, in the assay with Plasmodium falciparum, the EC50 turned out to be 4.8 µM.

`Cc1c(C(=O)NC(C)c2nc[nH]n2)[nH]c(Cl)c1Cc1ccc(C(F)(F)F)nc1` (stereo in doubt; form 3) showed an IC50 in assay [1] of 64 µM.
